Results published in patent US12331040B2 (Karyopharm Therapeutics Inc., priority 2013, dated 2025).
Read-outs that look alike come from different tables or passages of the source.

Tests used:
HT-29 cells = experiment: MTT cell proliferation assay; type: cell-based; conditions: Homo sapiens, 72-hour MTT
Experimental: (§1) The MTT cell proliferation assay was used to study the cytotoxic properties of the compounds. The assay was performed according to the method described by Roche Molecular Biochemicals, with minor modifications. The assay is based on the cleavage of the tetrazolium salt, MTT, in the presence of an electron-coupling reagent. The water-insoluble formazan salt produced must be solubilized in an additional step. Cells grown in a 96-well tissue culture plate were incubated with the MTT solution for approximately 4 hours. After this incubation period, a water-insoluble formazan dye formed. After solubilization, the formazan dye was quantitated using a scanning multi-well spectrophotometer (ELISA reader). […] The cells were seeded at 5,000-10,000 cells in each well of 96-well plate in 100 μL of fresh culture medium and were allowed to attach overnight. The stock solutions of the compounds were diluted in 100 μL cell culture medium to obtain eight concentrations of each test compound, ranging from 1 nM to 30 μM. […] All optical densities were measured at 490 nm using a Vmax Kinetic Microplate Reader (Molecular Devices). In most cases, the assay was performed in duplicate and the results were presented as a mean percent inhibition to the negative control±SE. The following formula was used to calculate the percent of inhibition: Inhibition (%)=(1−(ODo/OD))×100.
(§2) Compounds 504, 510, 525 and 585 were further tested against selected solid and hematological cancer cell lines and selected normal cell lines in a 72-hour MTT cell proliferation assay.

M24 cells = experiment: MTT cell proliferation assay; type: cell-based; conditions: Homo sapiens
MRC-5 cells = experiment: MTT cell proliferation assay; type: cell-based; conditions: Homo sapiens, MRC5; MRC-5 cell line
MDA-MB-468 xenografts = experiment: MDA-MB-468 (triple negative breast cancer) xenograft in CB-17 SCID mice; type: in vivo, mouse; conditions: for mean tumor volume of MDA-MB-468 xenografts: CB-17 SCID mice, 15 mg/kg PO once daily Monday through Friday; for toxicity (side effects, weight loss): MDA-MB-468 xenograft model, minimal or no side effects or weight loss up to 200 mg/kg daily dose
Experimental: The oncological impact of Compound 504 and Compound 510 were tested using a MDA-MB-468 (triple negative breast cancer) xenograft model in CB-17 SCID mice. MDA-MB-468 (ATCC #HTB-102) breast adenocarcinoma cells were obtained from ATCC. The cells were grown in high glucose DMEM supplemented with 10% fetal bovine serum, 1% penicillin and streptomycin, and 2 mM L-glutamine. Cells were sub-cultured by dilution at a ratio of 1:4. MDA-MB-468 cells were harvested by trypsinization and counted using a hemocytometer. Cells were resuspended in PBS at a 4×10^8 cells per mL. Cells were placed on ice and mixed with an equal volume of Matrigel (BD Biosciences CB-40234). Thirty-two (32) CB-17 SCID mice were inoculated sub-cutaneously in the left flank with 4×10^7 MDA-MB-468 cells. Treatment was initiated when the tumors reached a mean volume of about 100 mm^3. Mice were allocated to four (4) groups of eight (8) mice such that mean tumor volume was about 100 mm^3 in each group. Mice were treated with vehicle, standard of care/positive control drug (paclitaxel), Compound 504 or Compound 510. Compound 504 (15 mg/kg) and Compound 510 (15 mg/kg) were given orally (PO) once daily on Monday through Friday each week. Animals' weights and condition were recorded daily, and tumors were measured on Mondays, Wednesdays, and Fridays.

cancer cell lines = experiment: 72-hour MTT cell proliferation assay, summary over the cancer cell lines tested; type: cell-based
Experimental: as §1, §2

Z-138 xenografts = experiment: Z-138 mantle cell lymphoma xenograft in SCID mice; type: in vivo; parameters: toxicity (side effects, weight loss): dose or concentration left out as unconfirmed
Experimental: The impact of Compound 585 on tumor growth was tested using a Z-138 mantle cell lymphoma cancer xenograft model in SCID mice. Z-138 (ATCC #CRL-3001) mantle cell lymphoma cells were obtained from ATCC. These cells were grown in IMEM medium supplemented with 10% horse serum, 1% penicillin and streptomycin, and 2 mM L-glutamine. Cells were sub-cultured by dilution at a ratio of 1:5 to 1:10. Z-138 cells were harvested by centrifugation and counted using a hemocytometer. Cells were resuspended in PBS at a 2×10^8 cells per mL. Cells were placed on ice and mixed with an equal volume of Matrigel (BD Biosciences CB-40234). This mixture was kept on ice and injected into the left flank of mice in a volume of 0.2 mL, equivalent to 2×10^7 cells per mouse. Forty (40) CB-17 SCID mice were inoculated subcutaneously in the left flank with 2×10^7 Z-138 cells. Treatment was initiated when the tumors reached a mean volume of 125.2 mm^3. Mice were allocated to five (5) groups of eight (8) mice such that mean tumor volume in each group was within the range of 106.5 to 138.8 mm^3. Mice were treated with vehicle, standard of care/positive control drug (cyclophosphamide), or Compound 585. […] Animal weights and conditions were recorded daily, and tumors were measured on Mondays, Wednesdays and Fridays.

normal cells = experiment: 72-hour MTT cell proliferation assay, summary over the normal cell lines tested; type: cell-based; conditions: normal cells (n=10): NHDF, 3T3, NHEK, IMR-90, PBMC, ARPE-19, HS738.st, WI-38, MRC-5, RWPE-1
Experimental: as §1, with “(%)=(1−(ODo/OD))×100. […]” for “(%)=(1−(ODo/OD))×100.”

[1] = M24 cell line, read-out: MTT Assay IC50, M24
[2] = M24 cells, 72-hour MTT, read-out: M24 MTT IC50

SMILES: Nc1ccc(/C=C/C(=O)NCc2cc3cc(-c4ccc(S(=O)(=O)N5CCOCC5)cc4)cc(Cl)c3o2)cn1 [Compound 504, (E)-3-(6-Aminopyridin-3-yl)-N-((7-chloro-5-(4-(morpholinosulfonyl)phenyl)benzofuran-2-yl)methyl)acrylamide]
- IC50 (HT-29 cells): 480 nM
- IC50 (M24 cells; [1]): 100 to 5000 nM
- IC50 (M24 cells; [2]): 50 nM
- IC50 (MRC-5 cells): < 100 nM
- mean tumor volume of MDA-MB-468 xenografts (MDA-MB-468 xenografts): tumor growth inhibition
- toxicity (side effects, weight loss) (MDA-MB-468 xenografts): without major toxicity

SMILES: Nc1ccc(/C=C/C(=O)NCc2cc3cc(-c4ccc(C(=O)N5CCOCC5)cc4)cc(C(F)(F)F)c3o2)cn1 [Compound 510, (E)-3-(6-aminopyridin-3-yl)-N-((5-(4-(morpholine-4-carbonyl)phenyl)-7-(trifluoromethyl)benzofuran-2-yl)methyl)acrylamide]
- IC50 (HT-29 cells): 9310 nM
- IC50 (M24 cells; [1]): 100 to 5000 nM
- IC50 (M24 cells; [2]): 290 nM
- IC50 (MRC-5 cells): < 100 nM
- mean tumor volume of MDA-MB-468 xenografts (MDA-MB-468 xenografts): tumor growth inhibition
- toxicity (side effects, weight loss) (MDA-MB-468 xenografts): without major toxicity

SMILES: Nc1ccc(/C=C/C(=O)NCc2cc3cc(-c4ccc(C(=O)N5CCC(F)(F)CC5)cn4)cc(C(F)(F)F)c3o2)cn1 [Compound 585, (E)-3-(6-aminopyridin-3-yl)-N-((5-(5-(4,4-difluoropiperidine-1-carbonyl)pyridin-2-yl)-7-(trifluoromethyl)benzofuran-2-yl)methyl)acrylamide]
- share of the hematological cancer cell lines tested with an IC50 of less than 500 nM (cancer cell lines; 30/33 hematological cancer cell lines): 91%
- share of the solid cancer cell lines tested with an IC50 of less than 500 nM (cancer cell lines; 42/93 solid cancer cell lines): 45%
- share of the cancer cell lines tested with an IC50 of less than 1 μM (cancer cell lines; 91/126 cancer cell lines): 72%
- mean tumor volume of Z-138 xenografts (Z-138 xenografts; SCID mice, 10, 30, or 60 mg/kg PO daily): tumor growth inhibition and even tumor regression
- toxicity (side effects, weight loss) (Z-138 xenografts; Z-138 xenograft model, minimal or no side effects or weight loss up to daily dose): without major toxicity
- inhibition of normal cells (normal cells): did not inhibit
